Publication PMC8930988, “The NSAID glafenine rescues class 2 CFTR mutants via cyclooxygenase 2 inhibition of the arachidonic acid pathway” (Scientific Reports, 2022)
Where a name gives a salt, the structure may show the parent alone.

Target: T1, cyclooxygenase 2 (COX2) (Homo sapiens, UniProt P35354)
T1 construct: gene PTGS2; recombinant COX-2 (kit)
T1 sequence (P35354 18-604): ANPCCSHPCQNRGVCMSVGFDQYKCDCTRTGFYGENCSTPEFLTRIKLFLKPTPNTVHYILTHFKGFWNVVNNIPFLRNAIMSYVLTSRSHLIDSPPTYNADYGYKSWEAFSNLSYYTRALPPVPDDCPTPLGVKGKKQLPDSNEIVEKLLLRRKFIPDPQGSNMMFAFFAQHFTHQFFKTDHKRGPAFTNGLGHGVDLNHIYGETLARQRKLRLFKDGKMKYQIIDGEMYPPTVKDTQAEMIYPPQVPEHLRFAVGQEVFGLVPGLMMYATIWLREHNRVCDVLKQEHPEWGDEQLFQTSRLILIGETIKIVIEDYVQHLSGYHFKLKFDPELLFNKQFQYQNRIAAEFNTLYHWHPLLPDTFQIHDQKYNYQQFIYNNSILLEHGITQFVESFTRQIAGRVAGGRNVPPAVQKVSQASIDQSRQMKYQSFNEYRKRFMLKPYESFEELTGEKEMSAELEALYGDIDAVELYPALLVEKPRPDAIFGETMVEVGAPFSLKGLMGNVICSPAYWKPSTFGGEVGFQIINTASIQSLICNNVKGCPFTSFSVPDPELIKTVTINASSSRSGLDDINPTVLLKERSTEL
Assay: COX activity assay with recombinant enzyme, […] compound (Fig. 4E)
Format: biochemical

With `O=C(OCC(O)CO)c1ccccc1Nc1ccnc2cc(Cl)ccc12` (stereo not shown) [compound 37, 2,3-dihydroxypropyl 2-[(7-chloroquinolin-4-yl)amino] benzoate; hydrochloride] the “COX activity assay with recombinant enzyme, 10 μM compound (Fig. 4E)” value was “COX2 inhibition is required for glafenine-mediated CFTR correction and that glafenine interacts directly with COX2”.
